Columns and labels:
[1] = target: CDK1B (Homo sapiens, UniProt P06493); assay: Kinase assay CDK1B (radiometric profiling service); type: biochemical; conditions: apparent Ki calculated from Km (ATP) and IC50; read-out: CDK inhibition Ki CDK1B
Summary of the method: (§1)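 ADP formed by CDK4/D1 acting on the retinoblastoma C-terminal fragment is quantified by luminescence after a 40 min, 37° C reaction in buffer with 20 mM MgCl2, 0.4 mM DTT and 0.1 mg/ml BSA at pH 7.5. The other three CDKs are assayed radiometrically.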

[2] = target: CDK 2A (Homo sapiens, UniProt P24941); assay: Kinase assay CDK2A (radiometric profiling service); type: biochemical; conditions: apparent Ki calculated from Km (ATP) and IC50; read-out: CDK inhibition Ki CDK 2A
Summary of the method: as §1

[3] = target: T1, CDK4D1 (Homo sapiens, UniProt P11802); assay: Kinase assay CDK4/D1 (radiometric or ADP Glo); type: biochemical; conditions: apparent Ki calculated from Km (ATP) and IC50; read-out: CDK inhibition Ki CDK4D1
T1 construct: purchased Eurofins Pharma Discovery or Reaction Biology Corporation (service)
Summary of the method: as §1

[4] = target: T2, CDK6D3 (Homo sapiens, UniProt Q00534); assay: Kinase assay CDK6/D3 (radiometric or ADP Glo); type: biochemical; conditions: apparent Ki calculated from Km (ATP) and IC50; read-out: CDK inhibition Ki CDK6D3
T2 construct: purchased Eurofins Pharma Discovery or Reaction Biology Corporation (service)
Summary of the method: (§2)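 Radiometric inhibition data for CDKs came from Eurofins or Reaction Biology profiling services; CDK4/D1 was also run in-house by ADP-Glo in […] pH 7.5, 20 mM MgCl2, 0.4 mM DTT, 0.1 mg/ml BSA with RB-CTF substrate, 40 min at 37 °C after ATP start. Ten-point 1:3 dilutions (10 μM–0.5 nM); four-parameter IC50, Ki from IC50 and ATP Km.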

[5] = target: CDK7H (Homo sapiens, UniProt P50613); assay: Kinase assay CDK7H (radiometric profiling service); type: biochemical; conditions: apparent Ki calculated from Km (ATP) and IC50; read-out: CDK inhibition Ki CDK7H
Description: Eurofins Pharma Discovery or Reaction Biology Corporation Kinase Profiler services were used to measure inhibition of CDKs and other kinases by radiometric assay. Inhibition of CDK4/D1, CDK6/D3 and CDK9/T1 were also determined in-house using ADP Glo Kinase assays (Promega Corporation, Madison, USA). Briefly, the kinase reaction for CDK4/D1 and CDK6/D3 was performed with kinase reaction buffer ([…] Tris base pH 7.5, 20 mM MgCl2, 0.4 mM DTT), 0.1 mg/ml BSA and RB-CTF substrate (retinoblastoma protein1 C-terminal fraction). For CDK9/CyclinT1, the kinase reaction was performed with standard assay buffer and Kinase Dilution Buffer and RBER-IRStide substrate. Serial dilutions of 1:3 were prepared for test compounds for 10 concentrations (from 10 μM to 0.5 nM). The kinase reactions were started by addition of ATP, incubated for 40 min at 37° C. and then stopped by adding 10 μL of ADP Glo reagent. After incubation at room temperature in the dark for 40 min, 20 μL of kinase detection reagent was added per well and incubated for 40 min. Luminescence was measured using an EnVision Multilabel plate reader (PerkinElmer, Buckinghamshire, UK). Positive and negative controls were perfonned in the presence and absence of CDK kinases, respectively. Half-maximal inhibition (IC50) values were calculated using a 4-parameter logistic non-linear regression model with Graphpad prism (Version 6.0). Apparent inhibition constants (Ki) values were calculated from Km (ATP) and IC50 values for the respective kinases.

[6] = target: T3, CDK9T1 (Homo sapiens, UniProt P50750); assay: Kinase assay CDK9/T1 (radiometric or ADP Glo); type: biochemical; conditions: apparent Ki calculated from Km (ATP) and IC50; read-out: CDK inhibition Ki CDK9T1
T3 construct: purchased Eurofins Pharma Discovery or Reaction Biology Corporation (service)
Summary of the method: as §2

[7] = test system: MV4-11; assay: Cell viability assay (resazurin, leukemia cell line) MV4-11; type: cell-based, human; conditions: Homo sapiens, MV4-11, 72 h; read-out: Anti-proliferative activity GI50 MV4-11
Excerpt: (§3) Compounds from Example 1 were subjected to a standard MTT (3-(4,5-dimethylthiazol-2-yl)-2,5-diphenyltetrazolium bromide) and resazurin assays on solid tumour cell lines and leukemia cell lines, respectively, as previously reported (Wang S et al., J Med Chem 47:1662-1675, 2004 and Diab S. et al. CheMedChem 9:962-972, 2014).

[8] = test system: MDA-MB-453; assay: Cell viability assay (MTT, solid tumour cell line) MDA-MB-453; type: cell-based, human; conditions: Homo sapiens, MDA-MB-453, 72 h; read-out: Anti-proliferative activity GI50 MDA-MB-453
Excerpt: as §3

T2 sequence (Q00534 whole entry): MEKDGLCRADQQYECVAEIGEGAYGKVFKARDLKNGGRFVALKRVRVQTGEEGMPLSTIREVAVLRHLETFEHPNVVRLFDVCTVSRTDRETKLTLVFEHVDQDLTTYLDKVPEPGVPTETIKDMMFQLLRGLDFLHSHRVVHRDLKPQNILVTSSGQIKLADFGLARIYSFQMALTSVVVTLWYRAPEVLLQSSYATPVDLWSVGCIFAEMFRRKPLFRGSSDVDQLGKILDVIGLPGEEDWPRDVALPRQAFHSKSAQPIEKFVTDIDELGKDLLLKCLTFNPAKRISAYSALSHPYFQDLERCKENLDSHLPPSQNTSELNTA
T2 sequence (P30281 whole entry partner): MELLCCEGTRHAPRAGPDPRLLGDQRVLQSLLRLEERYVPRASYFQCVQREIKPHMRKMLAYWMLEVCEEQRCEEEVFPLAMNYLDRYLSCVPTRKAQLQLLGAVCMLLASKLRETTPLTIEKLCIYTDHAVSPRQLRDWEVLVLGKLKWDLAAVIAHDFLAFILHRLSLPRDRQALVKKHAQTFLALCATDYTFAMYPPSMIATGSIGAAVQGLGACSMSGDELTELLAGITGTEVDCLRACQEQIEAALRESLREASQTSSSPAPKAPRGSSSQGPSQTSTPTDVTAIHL
CDK7H, sequence (P50613 whole entry): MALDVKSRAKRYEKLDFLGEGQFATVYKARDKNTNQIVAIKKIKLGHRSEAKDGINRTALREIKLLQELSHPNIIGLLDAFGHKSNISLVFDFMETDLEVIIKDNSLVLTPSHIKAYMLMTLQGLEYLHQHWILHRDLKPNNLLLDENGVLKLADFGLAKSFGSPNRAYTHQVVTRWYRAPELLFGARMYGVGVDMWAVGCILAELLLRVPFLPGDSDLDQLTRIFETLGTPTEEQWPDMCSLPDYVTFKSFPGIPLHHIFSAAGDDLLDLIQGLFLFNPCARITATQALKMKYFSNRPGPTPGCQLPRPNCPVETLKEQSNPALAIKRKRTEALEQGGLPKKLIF
CDK7H, sequence (P51946 whole entry partner): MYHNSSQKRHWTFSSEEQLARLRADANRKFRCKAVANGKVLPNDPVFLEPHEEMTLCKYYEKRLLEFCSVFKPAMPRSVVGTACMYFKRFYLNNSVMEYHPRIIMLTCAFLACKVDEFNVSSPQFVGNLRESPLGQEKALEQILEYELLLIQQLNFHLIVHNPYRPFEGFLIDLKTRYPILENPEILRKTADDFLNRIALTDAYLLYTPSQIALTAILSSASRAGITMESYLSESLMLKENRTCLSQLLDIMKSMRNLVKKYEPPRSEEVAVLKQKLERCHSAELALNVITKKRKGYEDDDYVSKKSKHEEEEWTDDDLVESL
CDK7H, sequence (P51948 whole entry partner): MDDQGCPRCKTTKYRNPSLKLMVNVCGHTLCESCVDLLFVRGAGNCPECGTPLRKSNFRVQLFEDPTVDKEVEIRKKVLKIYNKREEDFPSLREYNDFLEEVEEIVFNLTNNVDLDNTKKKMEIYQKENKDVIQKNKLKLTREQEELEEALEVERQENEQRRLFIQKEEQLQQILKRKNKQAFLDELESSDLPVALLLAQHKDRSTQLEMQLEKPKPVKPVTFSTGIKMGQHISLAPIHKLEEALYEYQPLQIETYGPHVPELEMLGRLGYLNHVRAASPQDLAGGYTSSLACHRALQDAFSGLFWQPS
CDK1B, sequence (P06493 whole entry, the tested form may be a part): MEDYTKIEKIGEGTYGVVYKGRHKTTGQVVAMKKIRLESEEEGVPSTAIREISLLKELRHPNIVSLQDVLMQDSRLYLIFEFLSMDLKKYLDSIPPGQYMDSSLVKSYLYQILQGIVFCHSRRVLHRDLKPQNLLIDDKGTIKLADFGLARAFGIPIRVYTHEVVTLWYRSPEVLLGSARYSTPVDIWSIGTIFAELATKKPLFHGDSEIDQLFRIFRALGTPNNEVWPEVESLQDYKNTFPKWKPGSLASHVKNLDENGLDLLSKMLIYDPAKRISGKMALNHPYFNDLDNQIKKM
CDK1B, sequence (P14635 whole entry partner, the tested form may be a part): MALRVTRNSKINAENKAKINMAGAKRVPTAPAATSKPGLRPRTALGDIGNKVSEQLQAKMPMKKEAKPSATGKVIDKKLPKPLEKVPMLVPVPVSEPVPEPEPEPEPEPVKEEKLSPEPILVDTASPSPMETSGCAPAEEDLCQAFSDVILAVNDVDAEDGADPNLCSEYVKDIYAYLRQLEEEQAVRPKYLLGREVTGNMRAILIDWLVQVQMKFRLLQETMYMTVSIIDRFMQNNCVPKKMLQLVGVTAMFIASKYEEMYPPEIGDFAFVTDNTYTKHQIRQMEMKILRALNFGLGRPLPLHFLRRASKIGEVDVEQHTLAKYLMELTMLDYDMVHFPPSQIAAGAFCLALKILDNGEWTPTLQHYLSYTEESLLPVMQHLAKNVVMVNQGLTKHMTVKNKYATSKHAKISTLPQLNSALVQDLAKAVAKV
T1 sequence (P11802 whole entry): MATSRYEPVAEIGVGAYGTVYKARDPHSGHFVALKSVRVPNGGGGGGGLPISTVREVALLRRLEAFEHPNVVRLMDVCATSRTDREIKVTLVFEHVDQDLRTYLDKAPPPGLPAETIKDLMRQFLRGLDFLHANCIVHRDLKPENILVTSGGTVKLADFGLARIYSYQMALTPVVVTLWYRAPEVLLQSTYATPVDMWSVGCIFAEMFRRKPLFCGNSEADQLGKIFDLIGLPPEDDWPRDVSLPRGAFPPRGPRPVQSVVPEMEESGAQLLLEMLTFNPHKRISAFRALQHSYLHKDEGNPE
T1 sequence (P24385 whole entry partner): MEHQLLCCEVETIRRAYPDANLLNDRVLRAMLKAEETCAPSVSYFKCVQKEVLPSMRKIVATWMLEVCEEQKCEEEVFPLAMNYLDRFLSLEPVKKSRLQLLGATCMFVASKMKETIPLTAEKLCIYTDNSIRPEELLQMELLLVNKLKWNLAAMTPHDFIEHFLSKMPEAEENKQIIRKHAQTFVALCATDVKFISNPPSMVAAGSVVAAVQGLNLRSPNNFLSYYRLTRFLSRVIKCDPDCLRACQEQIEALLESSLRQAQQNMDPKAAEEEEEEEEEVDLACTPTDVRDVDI
T3 sequence (P50750 whole entry): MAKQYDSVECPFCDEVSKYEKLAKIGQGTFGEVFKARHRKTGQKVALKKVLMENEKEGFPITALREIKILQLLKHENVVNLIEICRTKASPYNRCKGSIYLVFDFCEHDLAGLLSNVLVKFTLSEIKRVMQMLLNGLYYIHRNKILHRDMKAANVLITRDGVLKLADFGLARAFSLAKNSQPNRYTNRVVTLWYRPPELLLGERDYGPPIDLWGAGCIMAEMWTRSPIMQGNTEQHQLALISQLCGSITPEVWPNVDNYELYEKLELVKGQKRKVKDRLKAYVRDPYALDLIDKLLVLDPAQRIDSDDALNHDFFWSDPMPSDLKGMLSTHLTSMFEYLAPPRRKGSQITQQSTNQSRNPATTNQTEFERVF
T3 sequence (O60563 whole entry partner): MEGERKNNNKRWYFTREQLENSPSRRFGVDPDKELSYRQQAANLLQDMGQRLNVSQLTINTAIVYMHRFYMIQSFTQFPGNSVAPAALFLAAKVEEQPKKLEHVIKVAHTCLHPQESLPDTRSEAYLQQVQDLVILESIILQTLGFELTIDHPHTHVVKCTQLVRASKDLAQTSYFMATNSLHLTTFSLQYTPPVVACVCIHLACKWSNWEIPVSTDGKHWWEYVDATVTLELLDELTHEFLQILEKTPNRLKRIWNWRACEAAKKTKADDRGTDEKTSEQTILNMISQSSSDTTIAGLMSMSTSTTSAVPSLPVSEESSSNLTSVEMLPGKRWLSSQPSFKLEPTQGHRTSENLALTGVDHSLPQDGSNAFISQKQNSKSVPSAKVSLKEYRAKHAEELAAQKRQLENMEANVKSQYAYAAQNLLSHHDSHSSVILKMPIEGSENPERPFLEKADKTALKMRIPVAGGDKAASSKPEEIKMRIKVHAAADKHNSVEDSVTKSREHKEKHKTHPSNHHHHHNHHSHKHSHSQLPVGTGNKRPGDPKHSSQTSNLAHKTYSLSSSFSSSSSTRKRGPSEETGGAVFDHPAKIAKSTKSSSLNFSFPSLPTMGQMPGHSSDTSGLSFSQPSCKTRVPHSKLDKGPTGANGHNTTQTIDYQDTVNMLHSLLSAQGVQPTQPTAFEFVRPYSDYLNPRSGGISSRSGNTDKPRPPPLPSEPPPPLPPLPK

Row | SMILES | Ki [1] [nM] | Ki [2] [nM] | Ki [3] [nM] | Ki [4] [nM] | Ki [5] [nM] | Ki [6] [nM] | GI50 [7] [nM] | GI50 [8] [nM]
1 | CNc1nc(C)c(-c2nc(Nc3ccc(N4CCNCC4)cn3)ncc2F)s1 [Compound 28, 5-(5-fluoro-2-((5-(piperazin-1-yl)pyridin-2-yl)amino)pyrimidin-4-yl)-N,4-dimethylthiazol-2-amine] | 1360 | 236 | 4 | 32 | > 5000 | 784 | 12 ± 3 | 248 ± 44
2 | CCn1c(C)c(-c2ccnc(Nc3ccc(N4CCN(C)CC4)cn3)n2)sc1=O [Compound 94, 3-ethyl-4-methyl-5-(2-((5-(4-methylpiperazin-1-yl)pyridin-2-yl)amino)pyrimidin-4-yl)thiazol-2(3H)-one] | 3660 | 1340 | 33 | 320 | 1260 | 1580 | 1830 ± 194 | > 10000
3 | Cc1nc(NC2CCCC2)sc1-c1ccnc(Nc2ccc(N3CCCCC3)cn2)n1 [Compound 75, N-cyclopentyl-4-methyl-5-(2-((5-(piperidin-1-yl)pyridin-2-yl)amino)pyrimidin-4-yl)thiazol-2-amine] | > 5000 | > 5000 | 70 | 257 | > 5000 | > 5000 | 191 ± 29 | 7040 ± 710
4 | COc1nc(C)c(-c2ccnc(Nc3ccc(N4CCN(C)CC4)cn3)n2)s1 [Compound 19, 4-(2-methoxy-4-methylthiazol-5-yl)-N-(5-(4-methylpiperazin-1-yl)pyridin-2-yl)pyrimidin-2-amine] | > 5000 | 3650 | 310 | 935 | > 5000 | 4760 | 3520 ± 1040 | > 10000
5 | Cc1nc(C(C)C)sc1-c1ccnc(Nc2ccc(N3CCOCC3)cn2)n1 [Compound 17, 4-(2-isopropyl-4-methylthiazol-5-yl)-N-(5-morpholinopyridin-2-yl)pyrimidin-2-amine] | 1440 | 60 | 1 | 4 | 4690 | 1730 | 649 ± 24 | 1050 ± 203
6 | CNc1nc(C)c(-c2ccnc(Nc3ccc(N4CCN(C(C)=O)CC4)cn3)n2)s1 [Compound 33, 1-(4-(6-((4-(4-methyl-2-(methylamino)thiazol-5-yl)pyrimidin-2-yl)amino)pyridin-3-yl)piperazin-1-yl)ethan-1-one] | 3100 | 310 | 578 | 3030 | > 5000 | > 5000 | 154 ± 74 | 5840 ± 279
7 | CNc1nc(C)c(-c2nc(Nc3ccc(N4CCN(C(C)=O)CC4)cn3)ncc2F)s1 [Compound 35, 1-(4-(6-((5-fluoro-4-(4-methyl-2-(methylamino)thiazol-5-yl)pyrimidin-2-yl)amino)pyridin-3-yl)piperazin-1-yl)ethan-1-one] | 1820 | 178 | 17 | 46 | > 5000 | 4070 | 35 ± 4 | 4910 ± 432
8 | Cc1nc(C(C)C)sc1-c1ccnc(Nc2ccc(N3CCN(C)CC3)cn2)n1 [Compound 14, 4-(2-isopropyl-4-methylthiazol-5-yl)-N-(5-(4-methylpiperazin-1-yl)pyridin-2-yl)pyrimidin-2-amine] | 3410 | 287 | 10 | 29 | > 5000 | 4180 | 596 ± 231 | > 10000
9 | FC(F)(F)c1nc(NC2CCCC2)sc1-c1ccnc(Nc2ccc(N3CCOCC3)cn2)n1 [Compound 73, N-cyclopentyl-5-(2-((5-morpholinopyridin-2-yl)amino)pyrimidin-4-yl)-4-(trifluoromethyl)thiazol-2-amine] | > 5000 | 154 | 8 | 11 | > 5000 | > 5000 | 69 ± 13 | 415 ± 103
10 | Cc1nc(C)c(-c2ccnc(Nc3ccc(N4CCN(C)CC4)cn3)n2)s1 [Compound 3, 4-(2,4-dimethylthiazol-5-yl)-N-(5-(4-methylpiperazin-1-yl)pyridin-2-yl)pyrimidin-2-amine] | > 5000 | 1930 | 30 | 170 | > 5000 | > 5000 | 53 ± 3 | 378 ± 29
11 | CNc1nc(C)c(-c2nc(Nc3ccc(N4CCCNCC4)cn3)ncc2F)s1 [Compound 53, 5-(2-((5-(1,4-diazepan-1-yl)pyridin-2-yl)amino)-5-fluoropyrimidin-4-yl)-N,4-dimethylthiazol-2-amine] | 2370 | 206 | 3 | 32 | > 5000 | 3040 | 80 ± 13 | 362 ± 3
12 | Cc1nc(Nc2ccccc2)sc1-c1ccnc(Nc2ccc(N3CCN(C)CC3)cn2)n1 [Compound 90, 4-methyl-5-(2-((5-(4-methylpiperazin-1-yl)pyridin-2-yl)amino)pyrimidin-4-yl)-N-phenylthiazol-2-amine] | > 5000 | > 5000 | 19 | 485 | > 5000 | > 5000 | 508 ± 42 | 494 ± 81
13 | CCc1nc(C)c(-c2ccnc(Nc3ccc(N4CCN(C)CC4)cn3)n2)s1 [Compound 8, 4-(2-ethyl-4-methylthiazol-5-yl)-N-(5-(4-methylpiperazin-1-yl)pyridin-2-yl)pyrimidin-2-amine] | > 5000 | 1820 | 24 | 980 | > 5000 | > 5000 | 750 ± 246 | 3010 ± 705
14 | Cc1nc(C(C)C)sc1-c1ccnc(Nc2ccc(N3CCNCC3)cn2)n1 [Compound 13, 4-(2-isopropyl-4-methylthiazol-5-yl)-N-(5-(piperazin-1-yl)pyridin-2-yl)pyrimidin-2-amine] | 3740 | 241 | 11 | 30 | > 5000 | > 5000 | 29 ± 19 | 703 ± 71
15 | CC(=O)N1CCN(c2ccc(Nc3nccc(-c4sc(N(C)C)nc4C)n3)nc2)CC1 [Compound 48, 1-(4-(6-((4-(2-(dimethylamino)-4-methylthiazol-5-yl)pyrimidin-2-yl)amino)pyridin-3-yl)piperazin-1-yl)ethan-1-one] | > 5000 | 976 | 87 | 234 | > 5000 | > 5000 | 537 ± 133 | 4720 ± 715
16 | CC(=O)N1CCN(c2ccc(Nc3nccc(-c4sc(N(C)C5CCCC5)nc4C)n3)nc2)CC1 [Compound 87, 1-(4-(6-((4-(2-(cyclopentyl(methyl)amino)-4-methylthiazol-5-yl)pyrimidin-2-yl)amino)pyridin-3-yl)piperazin-1-yl)ethan-1-one] | 3170 | 121 | 10 | 31 | > 5000 | > 5000 | 328 ± 7 | 6860 ± 798
17 | CSc1nc(C)c(-c2ccnc(Nc3ccc(N4CCN(C)CC4)cn3)n2)s1 [Compound 21, 4-(4-methyl-2-(methylthio)thiazol-5-yl)-N-(5-(4-methylpiperazin-1-yl)pyridin-2-yl)pyrimidin-2-amine] | > 5000 | 2700 | 7 | 42 | > 5000 | > 5000 | 456 ± 66 | 7160 ± 886

— patent USRE49850E1, “N-(pyridin-2-yl)-4-(thiazol-5-yl)pyrimidin-2-amine derivatives as therapeutic compounds” (AUCENTRA THERAPEUTICS PTY LTD, priority 2015, dated 2024)
